*1 amine or outer side, *2 acyl side, *3 side chain or, on linkers, in order; H or OH if unused. Where a SMILES comes first, the peptide text is derived from it. Side-chain parts run from the residue outwards. [ ]: non-standard residue; d: D form. The star is where a group is joined. γGlu = O=C(O)[C@H](CCC(=O)[*:2])N[*:1]; Palmitoyl = CCCCCCCCCCCCCCCC(=O)*; Aib = CC(C)(N)C(=O)O
Legend:
Type in all cases: cell-based
[1] = molecular target: T1, human glucagon receptor (Glucagon-R) (Homo sapiens, UniProt P47871); assay: Glucagon receptor efficacy assay (cAMP AlphaScreen, CHO cells); conditions: Table 1B; same protocol, different laboratory; read-out: EC50 hGCGR CHO-K1
T1 construct: expressed in transfected cells
T1 sequence (P47871 26-477): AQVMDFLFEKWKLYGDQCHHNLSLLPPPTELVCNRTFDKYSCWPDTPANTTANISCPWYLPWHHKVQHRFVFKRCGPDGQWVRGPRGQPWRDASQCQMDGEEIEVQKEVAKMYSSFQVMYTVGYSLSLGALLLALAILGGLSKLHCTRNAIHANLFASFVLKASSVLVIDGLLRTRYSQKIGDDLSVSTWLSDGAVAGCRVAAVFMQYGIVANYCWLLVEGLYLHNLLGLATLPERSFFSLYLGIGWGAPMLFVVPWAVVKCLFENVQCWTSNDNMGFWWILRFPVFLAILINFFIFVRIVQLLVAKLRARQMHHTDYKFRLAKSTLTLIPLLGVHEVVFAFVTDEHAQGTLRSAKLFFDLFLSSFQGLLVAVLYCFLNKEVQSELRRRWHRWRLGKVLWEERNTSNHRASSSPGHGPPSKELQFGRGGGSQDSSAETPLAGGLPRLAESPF
Source text: (§1) The cDNA encoding either the human glucagon receptor (Glucagon-R) (primary accession number P47871) or the human glucagon-like peptide 1 receptor (GLP-1R) (primary accession number P43220) were synthesized and cloned into a mammalian expression vector containing a Zeocin resistance marker.
(§2) The mammalian expression vectors encoding the Glucagon-R or the GLP-1-R were transfected into Chinese hamster ovary (CHO) cells by the Attractene method method. Stably expressing clones were obtained by Zeocin selection (250 μg/mL) upon limited dilution of cells resistant to the selection pressure. Glucagon-R and GLP-1-R cell clones expressing were picked, propagated and tested in the Glucagon-R and GLP-1-R efficacy assays as described below. One Glucagon-R expressing clone and one GLP-1-R expressing clone were chosen for compound profiling.
(§3) CHO cells expressing the human Glucagon-R, or human GLP-1-R were seeded 24 hours prior to the assay at 30,000 cells per well in 96-well microtiter plates in culture in 100 μl growth medium. On the day of analysis, growth medium was removed and the cells were washed once with 200 μl of assay buffer (Krebs-Ringer-buffer—KRBH). The buffer was removed and the cells were incubated for 15 min at room temperature in 10 μl KRBH (KRBH+10 mM HEPES, 5 mM NaHCO3, 0.1% (V/V) BSA) with 0.1 mM IBMX in deionized water containing increasing concentrations of test peptides. The reaction was stopped by the addition of lysis buffer (0.1% w/v BSA, 5 mM HEPES, 0.3% v/v Tween-20). After cell lysis for 10 min at room temperature, lysates were transferred to 384-well plates and 10 μl of acceptor/donorbead mixture as contained in the AlphaScreen™ cAMP Functional Assay Kit was added. After one hour of incubation at room temperature in the dark, the cAMP content was determined applying the AlphaScreen™ cAMP Functional Assay Kit from Perkin-Elmer according to manufacturer instructions. EC50 and relative efficacies compared to reference compounds (glucagon and GLP-1) were calculated applying computer aided curve fitting. The GLP-1/glucagon ratio is calculated as defined earlier.

[2] = molecular target: T2, human glucagon-like peptide 1 receptor (GLP-1R) (Homo sapiens, UniProt P43220); assay: GLP-1 receptor efficacy assay (cAMP AlphaScreen, CHO cells); conditions: Table 1B; for Ratio GLP-1/Glucagon: EC50 [GLP-1R]/EC50 [Glucagon-R]; for EC50: same protocol, different laboratory, read-out: EC50 hGLP-1R CHO-K1
T2 construct: expressed in transfected cells
T2 sequence (P43220 24-463): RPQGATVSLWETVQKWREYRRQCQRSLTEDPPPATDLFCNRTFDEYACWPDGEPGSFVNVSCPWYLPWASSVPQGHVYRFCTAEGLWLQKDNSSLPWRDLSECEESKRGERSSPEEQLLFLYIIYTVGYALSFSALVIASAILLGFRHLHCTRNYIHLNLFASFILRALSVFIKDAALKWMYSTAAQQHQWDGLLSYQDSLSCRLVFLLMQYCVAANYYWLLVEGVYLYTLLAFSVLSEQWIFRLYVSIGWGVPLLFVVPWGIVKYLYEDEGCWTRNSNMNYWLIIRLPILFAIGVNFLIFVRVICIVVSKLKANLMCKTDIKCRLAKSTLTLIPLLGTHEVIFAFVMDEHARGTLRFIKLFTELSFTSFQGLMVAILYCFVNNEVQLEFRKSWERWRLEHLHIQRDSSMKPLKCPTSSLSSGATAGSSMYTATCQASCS
Source text: as §1, §2, §3

[3] = molecular target: T3, endogenous GLP-1 receptors (Mus musculus, UniProt O35659); assay: Agonistic activity on endogenous GLP-1 receptor (cAMP, murine insulinoma cell line); conditions: intracellular cAMP, 15 minutes at 26° C.; read-out: EC50 GLP-1R (murine insulinoma cells)
T3 construct: Agonistic activity of the test compounds on endogenous GLP-1 receptors; endogenous in cells
T3 sequence (O35659 22-463): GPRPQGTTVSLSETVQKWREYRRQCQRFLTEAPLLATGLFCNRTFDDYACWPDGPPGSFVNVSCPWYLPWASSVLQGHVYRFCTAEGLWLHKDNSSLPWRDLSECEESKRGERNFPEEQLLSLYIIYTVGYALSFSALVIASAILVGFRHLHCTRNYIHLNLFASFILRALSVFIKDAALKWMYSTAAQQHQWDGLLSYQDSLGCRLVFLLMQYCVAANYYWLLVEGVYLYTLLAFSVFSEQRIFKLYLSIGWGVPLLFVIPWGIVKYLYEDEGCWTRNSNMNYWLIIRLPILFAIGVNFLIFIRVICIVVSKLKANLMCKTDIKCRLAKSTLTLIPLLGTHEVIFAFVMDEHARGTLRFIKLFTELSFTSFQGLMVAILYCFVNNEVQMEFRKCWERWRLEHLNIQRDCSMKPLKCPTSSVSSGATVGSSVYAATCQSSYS
Procedure: Agonistic activity of the test compounds on endogenous GLP-1 receptors was determined using a murine insulinoma cell line. Intracellular cAMP was used an indicator of receptor activation.
Cells were cultured for 24 h at a density of 10,000 cells/well in a 384-well plate. Medium was removed and 10 μL KRBH buffer (NaCl 130 mM, KCl 3.6 mM, NaH2PO4 0.5 mM, MgSO4 0.5 mM, CaCl2) 1.5 mM) containing test compound or GLP-1 (at increasing concentrations from […] to 100 nM) or solvent control (0.1% (v/v) DMSO) was added to the wells for 15 minutes at a temperature of 26° C.
The cellular cAMP content is measured using the AlphaScreen cAMP Functional Assay Kit (Perkin Elmer). Measurement was performed using the Envision (PerkinElmer) according to manufacturer's recommendations.
All measurements were performed in quadruplicate.
Results were converted into cAMP concentrations using a cAMP standard curve prepared in KRBH buffer containing 0.1% (v/v) DMSO. The resulting cAMP curves were plotted as absolute cAMP concentrations (nM) over log (test compound concentration) and analyzed using the curve fitting program XLfit.
Parameters calculated to describe the both the potency as well as the agonistic activity of each test compound on the endogenous GLP-1 receptors were:
pEC50 (negative logarithmic value of EC50, a concentration resulting in a half-maximal elevation of cAMP levels, reflecting the potency of the test compound);
Percent control (% CTL)(% cAMP elevation for each test compound concentration normalized based on the GLP-1-induced maximum cAMP response (100% CTL)).

[4] = molecular target: T4, endogenous glucagon receptor (Rattus norvegicus, UniProt P30082); assay: Agonistic activity on endogenous glucagon receptor (glycogen synthesis rate in primary rat hepatocytes); conditions: inhibition of glycogen synthesis rate, 3 hours, read-out: EC50 GLP-1R Rat hepat.
T4 construct: Agonistic activity of the test compounds on endogenous glucagon receptor; endogenous in cells; host or cells: primary rat hepatocytes
T4 sequence (P30082 27-485): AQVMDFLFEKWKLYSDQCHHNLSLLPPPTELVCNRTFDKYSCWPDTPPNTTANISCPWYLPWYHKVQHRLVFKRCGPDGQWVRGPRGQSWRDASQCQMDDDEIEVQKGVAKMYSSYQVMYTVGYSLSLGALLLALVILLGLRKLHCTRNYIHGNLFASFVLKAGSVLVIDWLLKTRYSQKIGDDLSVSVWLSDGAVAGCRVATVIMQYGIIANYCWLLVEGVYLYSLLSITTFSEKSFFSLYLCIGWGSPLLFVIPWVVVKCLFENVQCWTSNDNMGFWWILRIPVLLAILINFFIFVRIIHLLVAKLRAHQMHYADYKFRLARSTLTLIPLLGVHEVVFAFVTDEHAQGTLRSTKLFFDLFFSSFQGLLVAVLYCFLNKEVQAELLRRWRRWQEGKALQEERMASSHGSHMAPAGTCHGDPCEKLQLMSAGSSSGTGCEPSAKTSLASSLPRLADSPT
Procedure: Agonistic activity of the test compounds on endogenous glucagon receptor was determined by measuring their effect on rate of glycogen synthesis in primary rat hepatocytes. Upon activation of the glucagon receptor, an inhibition of the glycogen synthesis rate is expected. Rate of glycogen synthesis was determined by counting the amount of radioactively labeled glucose incorporated into the cellular glycogen stores in a defined period of time.
Primary rat hepatocytes were cultured at a density of 40,000 cells/well in a 24-well plate for 24 hours at 37° C. and 5% CO2.
Medium was discarded and the cells washed with PBS. 180 μL of KRBH-based buffer containing 0.1% BSA and glucose at a concentration of 22.5 mM was then added to the wells, followed by test compound and 40 μCi/ml D-[U14C] glucose (20 μL each). Incubation was continued for 3 hours.
At the end of the incubation period, the incubation buffer was aspirated and cells washed once with ice-cold PBS before lysis by incubation for 30 min at room temperature with 100 μL 1 mol/l NaOH.
Cell lysates were transferred to 96-well filter plates and glycogen precipitated by incubating the filter-plates for 120 min at 4° C. followed by washing the filter plates 4 times with ice-cold ethanol (70%). The resulting precipitates were filtered to dryness and the amount of incorporated ^14C-glucose determined by using a Topcount scintillation counter according to manufacturer's recommendations.
Wells with vehicle controls (0.1% (v/v) DMSO in KRBH buffer) were included as reference for non-inhibited glycogen synthesis (100% CTL). Wells without added D-[U^14C] glucose were included as controls for non-specific background signal (subtracted from all values). Endogenous glucagon peptide was used as a positive control.
All treatments were performed at least in triplicates.
Parameters calculated to describe the both the potency as well as the agonistic activity of each test compound on the endogenous glucagon receptor are pEC50 and % CTL. % CTL is determined by calculating the percentage of CPM/well in the presence of the test compound compared to the CPM/well of the vehicle control after subtracting the background CPM/well: [CPM/well(basal)−CPM/well(sample)]*100/[CPM/well(basal)−CPM/well(control)]
An activator of the glucagon receptor will result in an inhibition of the glycogen synthesis rate and will give % CTL values between 0% CTL (complete inhibition) and 100% CTL (no observable inhibition).
The resulting activity curves were plotted as absolute counts (unit: cpm/sample) over log (test compound concentration) and analyzed using the curve fitting program XLfit.
pEC50 (negative logarithmic value of EC50) reflects the potency of the test compound.
The terms EC50 and pEC50 quoted in relation to GLP-1R activation could equally be regarded as IC50 and pIC50 in relation to glycogen synthesis.

| EC50 [1] [nM] | Ratio GLP-1/Glucagon [2] | EC50 [2] [nM] | EC50 [3] [nM] | EC50 [4] [nM] | SMILES |
| --- | --- | --- | --- | --- | --- |
| 0.05 | 4.6 | 0.23 | 0.89 | 0.18 | CCCCCCCCCCCCCCCC(=O)N[C@@H](CCC(=O)NCCCC[C@H](NC(=O)[C@H](CO)NC(=O)[C@H](CCC(=O)O)NC(=O)[C@H](CC(C)C)NC(=O)[C@H](Cc1ccc(O)cc1)NC(=O)[C@H](CCCCN)NC(=O)[C@H](CO)NC(=O)[C@H](Cc1ccc(O)cc1)NC(=O)[C@H](CC(=O)O)NC(=O)[C@H](CO)NC(=O)[C@@H](NC(=O)[C@H](Cc1ccccc1)NC(=O)[C@@H](NC(=O)CNC(=O)[C@H](Cc1c[nH]cn1)NC(=O)C(C)(C)NC(=O)[C@@H](N)Cc1c[nH]cn1)[C@@H](C)O)[C@@H](C)O)C(=O)N[C@@H](C)C(=O)N[C@@H](C)C(=O)N[C@@H](CCC(=O)O)C(=O)N[C@@H](CCC(=O)O)C(=O)N[C@@H](Cc1ccccc1)C(=O)N[C@H](C(=O)N[C@@H](CCC(=O)O)C(=O)N[C@@H](Cc1c[nH]c2ccccc12)C(=O)N[C@@H](CC(C)C)C(=O)N[C@@H](CCC(=O)O)C(=O)N[C@@H](CO)C(=O)N[C@@H](C)C(=O)O)[C@@H](C)CC)C(=O)O [Compound 17, H-H-Aib-HGTFTSDYSKYLES-K(Hexadecanoyl-isoGlu)-AAEEFIEWLESA-OH] (H-H[Aib]HGTFTSDYSKYLESK([γGlu-Palmitoyl])AAEEFIEWLESA-OH) |
| 0.14 | 6.2 | 0.87 | 0.99 | 0.18 | CCCCCCCCCCCCCCCC(=O)N[C@@H](CCC(=O)NCCCC[C@H](NC(=O)[C@H](CCC(=O)O)NC(=O)[C@H](CCC(=O)O)NC(=O)[C@H](CC(C)C)NC(=O)[C@H](Cc1ccc(O)cc1)NC(=O)[C@H](CCCCN)NC(=O)[C@H](CO)NC(=O)[C@H](Cc1ccc(O)cc1)NC(=O)[C@H](CC(=O)O)NC(=O)[C@H](CO)NC(=O)[C@@H](NC(=O)[C@H](Cc1ccccc1)NC(=O)[C@@H](NC(=O)CNC(=O)[C@H](Cc1c[nH]cn1)NC(=O)[C@H](CO)NC(=O)[C@@H](N)Cc1c[nH]cn1)[C@@H](C)O)[C@@H](C)O)C(=O)N[C@@H](C)C(=O)N[C@@H](C)C(=O)N[C@@H](Cc1c[nH]cn1)C(=O)N[C@@H](CCC(=O)O)C(=O)N[C@@H](Cc1ccccc1)C(=O)N[C@H](C(=O)N[C@@H](CCC(=O)O)C(=O)N[C@@H](Cc1c[nH]c2ccccc12)C(=O)N[C@@H](CC(C)C)C(=O)N[C@@H](CCC(=O)O)C(=O)N[C@@H](CO)C(=O)N[C@@H](C)C(=O)O)[C@@H](C)CC)C(=O)O [Compound 18, H-HSHGTFTSDYSKYLEE-K(Hexadecanoyl-isoGlu)-AAHEFIEWLESA-OH] (H-HSHGTFTSDYSKYLEEK([γGlu-Palmitoyl])AAHEFIEWLESA-OH) |
| 0.08 | 3.38 | 0.27 | 0.33 | 0.06 | CCCCCCCCCCCCCCCC(=O)N[C@@H](CCC(=O)NCCCC[C@H](NC(=O)[C@H](CCC(=O)O)NC(=O)[C@H](CCC(=O)O)NC(=O)[C@H](CC(C)C)NC(=O)[C@H](Cc1ccc(O)cc1)NC(=O)[C@H](CCCCN)NC(=O)[C@H](CO)NC(=O)[C@H](Cc1ccc(O)cc1)NC(=O)[C@H](CC(=O)O)NC(=O)[C@H](CO)NC(=O)[C@@H](NC(=O)[C@H](Cc1ccccc1)NC(=O)[C@@H](NC(=O)CNC(=O)[C@H](Cc1c[nH]cn1)NC(=O)C(C)(C)NC(=O)[C@@H](N)Cc1c[nH]cn1)[C@@H](C)O)[C@@H](C)O)C(=O)N[C@@H](C)C(=O)N[C@@H](C)C(=O)N[C@@H](Cc1c[nH]cn1)C(=O)N[C@@H](CCC(=O)O)C(=O)N[C@@H](Cc1ccccc1)C(=O)N[C@H](C(=O)N[C@@H](CCC(=O)O)C(=O)N[C@@H](Cc1c[nH]c2ccccc12)C(=O)N[C@@H](CC(C)C)C(=O)N[C@@H](CCC(=O)O)C(=O)N[C@@H](CO)C(=O)N[C@@H](C)C(N)=O)C(C)C)C(=O)O [Compound 19, H-H-Aib-HGTFTSDYSKYLEE-K(Hexadecanoyl-isoGlu)-AAHEFVEWLESA-NH2] (H-H[Aib]HGTFTSDYSKYLEEK([γGlu-Palmitoyl])AAHEFVEWLESA-NH2) |
